One experiment has as its target Recombinant human TRKA (Homo sapiens (Human), UniProt P04629). In words: In vitro activity test on TRKA kinase (HTRF kinEASE TK). The settings on record: 14.68 μM ATP, 40 min, room temperature. Type of experiment: biochemical. Here is the method:
(§1) Recombinant human TRKA, TRKB, TRKC proteins were purchased from Carna Biosciences. HTRF kinEASE TK kit was purchased from Cisbio Bioassays. Synergy Neo 2 of Biotek was used to read the plate.
(§2) The tested compounds were subjected to 3-fold serial dilution to reach a final concentration of 1 μM to 0.05 nM (10 concentrations), duplicates for each concentration; and the DMSO concentration in the detection reaction was 1%.
0.2 ng/μL TRKA protein kinase, 1 μM TK Substrate-biotin polypeptide substrate, 14.68 μM ATP, 1×enzymatic buffer, 5 mM MgCl2, and 1 mM DTT. The assay plate was White Proxiplate384-Plus plate (PerkinElmer), and the reaction was incubated at room temperature for 40 min, and the assay volume was 10 μL.
(§3) 10 μL of detection reagent (containing 0.125 μM SA-XL665 and 5 μL 1×TK-Antibody) was added to the plate and incubated overnight at room temperature. Synergy Neo 2 was used to read the plate.
(§4) The 665/620 Ratio was converted according to the following formula into inhibition rate (%)=(1−Ratiotest/Ratiomax)×100%. Ratiomax was the value of positive controls without tested compound, and Ratiotest was the value of each concentration of different compounds. IC50 (nM) data was obtained by 4 parameter curve fitting (see Table 1).
For orientation: Time-resolved FRET reads energy transfer from a long-lived donor to a nearby acceptor.

In another experiment the target is Recombinant human TRKB (Homo sapiens (Human), UniProt Q16620). In words: In vitro activity test on TRKB kinase (HTRF kinEASE TK). It counts as biochemical. The settings on record: 4.77 μM ATP, 50 min, room temperature. On the procedure: as §1, §2
0.037 ng/μL TRKB protein kinase, 1 μM TK Substrate-biotin polypeptide substrate, 4.77 μM ATP, 1× enzymatic buffer, 5 mM MgCl2, 1 mM MnCl2 and 1 mM DTT. The assay plate was White Proxiplate 384-Plus plate (PerkinElmer), the reaction was incubated at room temperature for 50 min, and the assay volume was 10 μL.
as §3, §4

The next experiment addresses Recombinant human TRKC (Homo sapiens (Human), UniProt Q16288). In words: In vitro activity test on TRKC kinase (HTRF kinEASE TK). Type of experiment: biochemical. To be noted: 25.64 μM ATP, 40 min, room temperature. On the procedure: as §1, §2
0.037 ng/μL TRKC protein kinase, 1 μM TK Substrate-biotin polypeptide substrate, 25.64 μM ATP, 1× enzymatic buffer, 5 mM MgCl2, and 1 mM DTT. The detection plate was White Proxiplate 384-Plus plate (PerkinElmer), the reaction was incubated at room temperature for 40 min, and the assay volume was 10 μL.
as §3, §4

In a further experiment the test system is KM12-LUC cells. The experiment can be described thus: KM12-LUC cell proliferation experiment (CellTiter-Glo). Type of experiment: cell-based. To be noted: human colon cancer cell line with TPM3-NTRK1 fusion, 72 hours. On the procedure: Human colon cancer cell line KM12-LUC (LUC, stably expressing Luciferase) expressing TPM3-NTRK1 fusion gene was used to evaluate cellular activity of the compounds. The TRK fusion gene in KM12-LUC cells makes the sustained activation of TRK and the downstream signaling pathways associated with cell proliferation such as MAPK-ERK, PI3K-AKT, etc independent of the stimulation of extracellular growth factor. […] The method was as follows: On the first day, the cells were seeded into 384-well plates at 2000 cells/well; on the second day, different concentrations of test compounds were added; and on the 5th day, CellTiter-Glo (Promega) was added to detect cell viability, and the cell proliferation inhibition rate at 72 hours was calculated. Statistical analysis was carried out by PRISM5 and the IC50 of the test compounds was calculated.
(In general: In ATP-based viability assays light output follows the ATP content of the culture.)

In experiment [1] the target is recombinant human TRKA (G595R) (Homo sapiens (Human), UniProt P04629, G595R). The experiment can be described thus: In vitro activity test on mutant TRKA (G595R) (HTRF kinEASE TK). It counts as biochemical. The settings on record: 4.5 μM ATP, 30 min, room temperature; read-out: TRKA (G595R) IC 50. Here is the method: The recombinant human TRKA (G595R), TRKA (G667C) and TRKC (G623R) proteins were purchased from SignalChem. HTRF kinEASE TK kit was purchased from Cisbio Bioassays. Synergy Neo 2 of Biotek was used to read the plate.
The tested compounds were subjected to 4-fold serial dilution to reach a final concentration of 1 μM to 0.004 nM (10 concentrates), duplicates for each concentration; and the final concentration of DMSO in the reaction was 1%.
0.12 ng/μL TRKA (G595R) kinase, 1 μM TK Substrate-biotin polypeptide substrate, 4.5 μM ATP, 1× enzymatic buffer, 5 mM MgCl2, and 1 mM DTT. The assay plate was White Proxiplate384-Plus plate (PerkinElmer), and the reaction was incubated at room temperature for 30 min, and the assay volume was 10 μL.
10 μL of detection reagent (containing 0.125 μM SA-XL665 and 5 μL 1×TK-Antibody) was added to the plate and incubated overnight at room temperature, and Synergy Neo 2 was used to read the plate.
The value of 665/620 Ratio minus the value of negative control wells without enzyme, then the obtained value was converted according to the following formula into inhibition rate (%)=(1−Ratiotest/Ratiomax)×100%. Ratiomax was the value of positive controls without tested compound, and Ratiotest was the value of each concentration of different compounds. IC50 (nM) data was obtained by 4 parameter curve fitting (see Table 3).

pIC50: −log10 of the molar value.

Our source for the IC50 values is US12391687B2, “Five-and-six-membered heterocyclic compound and use thereof as protein receptor kinase inhibitor” (SHANGHAI ENNOVABIO PHARMACEUTICALS CO., LTD., priority 2018, dated 2025).

Recombinant human TRKA, sequence (P04629 33-796): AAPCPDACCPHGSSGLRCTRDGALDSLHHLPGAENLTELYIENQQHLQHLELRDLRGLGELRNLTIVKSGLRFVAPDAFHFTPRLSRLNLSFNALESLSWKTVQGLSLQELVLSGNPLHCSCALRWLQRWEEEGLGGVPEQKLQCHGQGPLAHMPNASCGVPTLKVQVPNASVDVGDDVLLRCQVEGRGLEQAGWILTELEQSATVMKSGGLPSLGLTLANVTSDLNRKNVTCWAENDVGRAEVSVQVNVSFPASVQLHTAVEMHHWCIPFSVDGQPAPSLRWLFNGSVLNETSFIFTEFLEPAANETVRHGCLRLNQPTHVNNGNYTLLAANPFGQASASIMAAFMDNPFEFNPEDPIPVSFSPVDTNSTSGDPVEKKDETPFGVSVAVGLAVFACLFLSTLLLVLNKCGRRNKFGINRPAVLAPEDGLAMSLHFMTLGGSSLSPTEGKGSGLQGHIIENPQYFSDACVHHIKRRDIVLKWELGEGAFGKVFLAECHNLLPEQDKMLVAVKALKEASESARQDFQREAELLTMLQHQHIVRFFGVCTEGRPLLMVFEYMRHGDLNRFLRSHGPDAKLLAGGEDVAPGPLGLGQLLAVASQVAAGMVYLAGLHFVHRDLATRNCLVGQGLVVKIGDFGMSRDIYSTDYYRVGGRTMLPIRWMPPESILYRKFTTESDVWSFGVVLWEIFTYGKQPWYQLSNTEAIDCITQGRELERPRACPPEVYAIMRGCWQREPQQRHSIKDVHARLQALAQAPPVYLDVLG
Recombinant human TRKC, sequence (Q16288 32-839): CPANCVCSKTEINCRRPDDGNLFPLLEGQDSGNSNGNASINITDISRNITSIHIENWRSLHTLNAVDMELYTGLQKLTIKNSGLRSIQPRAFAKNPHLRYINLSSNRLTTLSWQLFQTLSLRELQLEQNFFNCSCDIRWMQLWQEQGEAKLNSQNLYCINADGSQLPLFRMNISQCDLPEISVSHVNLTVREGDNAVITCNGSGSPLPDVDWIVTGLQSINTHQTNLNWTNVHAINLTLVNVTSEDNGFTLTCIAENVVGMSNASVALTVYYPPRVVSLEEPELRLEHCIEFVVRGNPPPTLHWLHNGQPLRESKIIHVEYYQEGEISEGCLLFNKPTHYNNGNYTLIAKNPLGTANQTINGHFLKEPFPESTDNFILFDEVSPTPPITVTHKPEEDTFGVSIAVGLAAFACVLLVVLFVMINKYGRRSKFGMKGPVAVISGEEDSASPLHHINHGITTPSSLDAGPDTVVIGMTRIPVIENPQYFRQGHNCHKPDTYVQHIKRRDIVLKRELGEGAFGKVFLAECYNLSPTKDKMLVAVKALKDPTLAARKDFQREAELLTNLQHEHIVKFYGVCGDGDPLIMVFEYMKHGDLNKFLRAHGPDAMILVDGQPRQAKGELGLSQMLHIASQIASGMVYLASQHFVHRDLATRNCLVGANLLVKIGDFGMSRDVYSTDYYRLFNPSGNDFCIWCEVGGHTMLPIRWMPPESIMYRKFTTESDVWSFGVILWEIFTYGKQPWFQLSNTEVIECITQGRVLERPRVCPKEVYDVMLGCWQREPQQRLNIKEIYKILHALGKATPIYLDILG
recombinant human TRKA (G595R), sequence (P04629 33-796 G595R): as the sequence (P04629 33-796) above, with G563R counted along it
Recombinant human TRKB, sequence (Q16620 32-822): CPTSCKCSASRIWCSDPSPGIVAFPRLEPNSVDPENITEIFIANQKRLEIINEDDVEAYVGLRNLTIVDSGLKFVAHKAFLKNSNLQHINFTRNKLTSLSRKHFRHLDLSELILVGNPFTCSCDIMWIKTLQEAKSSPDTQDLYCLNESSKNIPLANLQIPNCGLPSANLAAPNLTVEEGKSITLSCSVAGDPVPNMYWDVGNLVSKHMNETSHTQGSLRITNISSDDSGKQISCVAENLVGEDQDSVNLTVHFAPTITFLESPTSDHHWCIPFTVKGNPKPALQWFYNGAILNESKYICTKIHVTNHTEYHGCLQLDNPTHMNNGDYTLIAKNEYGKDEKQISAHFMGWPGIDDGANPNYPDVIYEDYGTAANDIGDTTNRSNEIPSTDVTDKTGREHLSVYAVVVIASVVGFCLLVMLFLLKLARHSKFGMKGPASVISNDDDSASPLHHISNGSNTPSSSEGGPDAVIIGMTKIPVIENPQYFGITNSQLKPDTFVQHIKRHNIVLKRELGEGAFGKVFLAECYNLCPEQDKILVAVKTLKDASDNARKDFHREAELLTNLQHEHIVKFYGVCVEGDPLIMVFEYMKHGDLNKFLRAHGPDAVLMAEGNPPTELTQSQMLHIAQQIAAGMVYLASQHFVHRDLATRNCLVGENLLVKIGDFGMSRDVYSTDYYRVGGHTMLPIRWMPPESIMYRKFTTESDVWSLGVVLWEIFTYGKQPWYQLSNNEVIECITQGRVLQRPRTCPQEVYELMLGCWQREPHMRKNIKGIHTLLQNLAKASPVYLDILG

What is called IC50 is the concentration that gives 50% inhibition. Turning to `NC(=O)c1cnc2[nH]nc(N3C[C@@H](F)C[C@@H]3c3cc(F)ccc3F)c2c1` [Example 5, 3-((2R,4S)-2-(2,5-difluorophenyl)-4-fluoropyrrolidin-1-yl)-1H-pyrazolo[3,4-b]pyridine-5-carboxamide], the half-maximal inhibitory concentration (IC50) at Recombinant human TRKA, on Recombinant human TRKB and on Recombinant human TRKC was below 10 nM in each case. Moreover, the pIC50 (in the experiment with KM12-LUC cells; in experiment [1]) was above 8.00 each time.

With `Fc1ccc(F)c([C@H]2C[C@H](F)CN2c2n[nH]c3ncc(-c4cn[nH]c4)cc23)c1` [Example 20, 3-((2R,4S)-2-(2,5-difluorophenyl)-4-fluoropyrrolidin-1-yl)-5-(1H-pyrazol-4-yl)-1H-pyrazolo[3,4-b]pyridine], the IC50 on Recombinant human TRKA, at Recombinant human TRKB and at Recombinant human TRKC was below 1 nM each time. Further, the pIC50 is above 8.00 in the experiment with KM12-LUC cells and above 9.00 in experiment [1].

Regarding `Fc1ccc(F)c([C@H]2C[C@H](F)CN2c2n[nH]c3ncc(-c4nn[nH]n4)cc23)c1` [Example 21, 3-((2R,4S)-2-(2,5-difluorophenyl)-4-fluoropyrrolidin-1-yl)-5-(2H-tetrazol-5-yl)-1H-pyrazolo[3,4-b]pyridine], the half-inhibitory concentration (IC50) at Recombinant human TRKA, at Recombinant human TRKB and on Recombinant human TRKC was below 1 nM each time. Further, the pIC50 in experiment [1] was above 9.00.

For `Fc1ccc(F)c([C@H]2C[C@H](F)CN2c2n[nH]c3ncc(-c4cnn(C5CCNCC5)c4)cc23)c1` [Example 22, 3-((2R,4S)-2-(2,5-difluorophenyl)-4-fluoropyrrolidin-1-yl)-5-(1-(piperidin-4-yl)-1H-pyrazol-4-yl)-1H-pyrazolo[3,4-b]pyridine], the IC50 at Recombinant human TRKA, on Recombinant human TRKB and at Recombinant human TRKC was below 1 nM throughout. Moreover, the pIC50 was above 8.00 in the experiment with KM12-LUC cells and above 9.00 in experiment [1].

For `Fc1ccc(F)c([C@H]2C[C@H](F)CN2c2n[nH]c3ncc(-c4cnn([C@@H]5CCNC5)c4)cc23)c1` [Example 24, 3-((2R,4S)-2-(2,5-difluorophenyl)-4-fluoropyrrolidin-1-yl)-5-(1-((R)-pyrrolidin-3-yl)-1H-pyrazol-4-yl)-1H-pyrazolo[3,4-b]pyridine], the figures for the IC50 on Recombinant human TRKA, at Recombinant human TRKB and on Recombinant human TRKC were below 10 nM, below 500 nM and below 100 nM, respectively. Further, the pIC50 with KM12-LUC cells was above 8.00; in experiment [1] it was above 9.00.

For `Fc1ccc(F)c([C@H]2C[C@H](F)CN2c2n[nH]c3ncc(-c4cnn([C@H]5CCNC5)c4)cc23)c1` [Example 25, 3-((2R,4S)-2-(2,5-difluorophenyl)-4-fluoropyrrolidin-1-yl)-5-(1-((S)-pyrrolidin-3-yl)-1H-pyrazol-4-yl)-1H-pyrazolo[3,4-b]pyridine], the IC50 at Recombinant human TRKA, on Recombinant human TRKB and on Recombinant human TRKC was below 1 nM in each case. Moreover, the pIC50 was above 8.00 in the experiment on KM12-LUC cells and above 9.00 in experiment [1].

For `CS(=O)(=O)n1cc(-c2cnc3[nH]nc(N4C[C@@H](F)C[C@@H]4c4cc(F)ccc4F)c3c2)cn1` [Example 27, 3-((2R,4S)-2-(2,5-difluorophenyl)-4-fluoropyrrolidin-1-yl)-5-(1-(methylsulfonyl)-1H-pyrazol-4-yl)-1H-pyrazolo[3,4-b]pyridine], the IC50 on Recombinant human TRKA, at Recombinant human TRKB and on Recombinant human TRKC was below 1 nM each time. Also, the pIC50 in experiment [1] is above 9.00.

For `Fc1ccc(F)c([C@H]2C[C@H](F)CN2c2n[nH]c3ncc(-c4cnn(C5CCOCC5)c4)cc23)c1` [Example 28, 3-((2R,4S)-2-(2,5-difluorophenyl)-4-fluoropyrrolidin-1-yl)-5-(1-(tetrahydro-2H-pyran-4-yl)-1H-pyrazol-4-yl)-1H-pyrazolo[3,4-b]pyridine], the IC50 at Recombinant human TRKA, at Recombinant human TRKB and at Recombinant human TRKC was below 1 nM in each case. Further, the pIC50 in experiment [1] is above 9.00.

Regarding `CN1CC(n2cc(-c3cnc4[nH]nc(N5C[C@@H](F)C[C@@H]5c5cc(F)ccc5F)c4c3)cn2)C1` [Example 29, 3-((2R,4S)-2-(2,5-difluorophenyl)-4-fluoropyrrolidin-1-yl)-5-(1-(1-methylazetidin-3-yl)-1H-pyrazol-4-yl)-1H-pyrazolo[3,4-b]pyridine], the IC50 on Recombinant human TRKA, at Recombinant human TRKB and at Recombinant human TRKC was below 1 nM throughout. In addition, the pIC50 (in the experiment with KM12-LUC cells; in experiment [1]) was above 8.00 throughout.

As to `Fc1ccc(F)c([C@H]2C[C@H](F)CN2c2n[nH]c3ncc(-c4cnn(COCc5ccccc5)c4)cc23)c1` [Example 31, 5-(1-((benzyloxy)methyl)-1H-pyrazol-4-yl)-3-((2R,4S)-2-(2,5-difluorophenyl)-4-fluoropyrrolidin-1-yl)-1H-pyrazolo[3,4-b]pyridine], the IC50 on Recombinant human TRKA is below 10 nM; on Recombinant human TRKB, below 1 nM; on Recombinant human TRKC it was below 10 nM. Besides, the pIC50 in experiment [1] was above 8.00.

Consider `Fc1ccc(F)c([C@H]2C[C@H](F)CN2c2n[nH]c3ncc(-c4cnn(CC5CNC5)c4)cc23)c1` [Example 34, 5-(1-(azetidin-3-ylmethyl)-1H-pyrazol-4-yl)-3-((2R,4S)-2-(2,5-difluorophenyl)-4-fluoropyrrolidin-1-yl)-1H-pyrazolo[3,4-b]pyridine], for which the IC50 on Recombinant human TRKA, on Recombinant human TRKB and on Recombinant human TRKC was below 1 nM each time. In addition, the pIC50 in experiment [1] was above 8.00.

As to `Cc1cn(CC(F)F)nc1-c1cnc2[nH]nc(N3C[C@@H](F)C[C@@H]3c3cc(F)ccc3F)c2c1` [Example 40, 5-(1-(2,2-difluoroethyl)-4-methyl-1H-pyrazol-3-yl)-3-((2R,4S)-2-(2,5-difluorophenyl)-4-fluoropyrrolidin-1-yl)-1H-pyrazolo[3,4-b]pyridine], the concentration for half-maximal inhibition (IC50) at Recombinant human TRKA, on Recombinant human TRKB and at Recombinant human TRKC was below 1 nM throughout. The pIC50 in experiment [1] is above 8.00.

`Fc1ccc(F)c([C@H]2C[C@H](F)CN2c2n[nH]c3ncc(-c4nnc(COC(F)(F)F)o4)cc23)c1` [Example 41, 2-(3-((2R,4S)-2-(2,5-difluorophenyl)-4-fluoropyrrolidin-1-yl)-1H-pyrazolo[3,4-b]pyridin-5-yl)-5-((trifluoromethoxy)methyl)-1,3,4-oxadiazole]: the 50% inhibitory concentration (IC50) at Recombinant human TRKA, on Recombinant human TRKB and on Recombinant human TRKC was below 1 nM each time. In addition, the pIC50 in experiment [1] is above 9.00.

Consider `O=C(c1n[nH]c2nccc(N[C@@H]3CCC[C@H]3O)c12)N1C[C@@H](F)C[C@@H]1c1cc(F)ccc1F` [Example 43, ((2R,4S)-2-(2,5-difluorophenyl)-4-fluoropyrrolidin-1-yl)(4-(((1R,2R)-2-hydroxycyclopentyl)amino)-1H-pyrazolo[3,4-b]pyridin-3-yl)methanone], for which the IC50 at Recombinant human TRKA, at Recombinant human TRKB and at Recombinant human TRKC was below 1 nM in each case. The pIC50 in experiment [1] was above 9.00.
